Values of other authors, collected in patent US20220152157A1 (priority 2020, published 2022).
Where two headings read alike, the source gives them in different places.

Assays:
[1] = test system: human respiratory viruses; conditions: combined with ribavirin, in vitro
[2] = test system: human respiratory viruses; conditions: combined with ribavirin, experimental animal models
influenza A virus = conditions: for membrane convergence of virus and host cell: influenza A, model MDCK cells
[3] = test system: Toll-like receptors (TLR)
pulmonary inflammation = conditions: in vivo
virus [4] = conditions: mice
virus [5] = conditions: ferrets

In the case of `CC(N)C12CC3CC(CC(C3)C1)C2` (centres unmarked) [Rimantadine], the “antiviral effects of the combination” value [1] is given as “increased antiviral effects” and the “antiviral effects of the combination” value [2] is given as “increased antiviral effects”.
In the case of “1-palmitoyl-2-oleoyl-sn-glycero-3-phosphoglycerol [POPG]”, the “binding affinity for the influenza A virus” value (influenza A virus) is listed as “high binding affinity”, the “binding of the influenza A virus to the surrogate host cells” value (influenza A virus) is listed as “prevent the binding” and the “membrane convergence of virus and host cell” value (influenza A virus) is listed as “inhibited”. For the same compound, the “deactivation of Toll-like receptors (TLR)” value [3] was “deactivators of Toll-like receptors”, the “lowering of total inflammatory cell infiltrates (neutrophils and lymphocytes)” value (pulmonary inflammation) was over 90% and the virus-induced proinflammatory cytokines (pulmonary inflammation) was “reduced”. For the same compound, the viricidal effect (virus [4]) was “viricidal” and the viricidal effect (virus [5]) was “viricidal”.
For `NC12CC3CC(CC(C3)C1)C2` [amantadine], the “antiviral effects of the combination” value [1] is given as “increased antiviral effects” and the “antiviral effects of the combination” value [2] is given as “increased antiviral effects”.
For `CCCCC/C=C\C/C=C\C/C=C\C/C=C\CCCC(=O)OC(COC(=O)CCCCCCCCCCCCCCCCC)COP(=O)(O)OC1C(O)C(O)C(O)C(O)C1O` (centres unmarked) [PI, phosphatidyl inositol], the “binding affinity for the influenza A virus” value (influenza A virus) is given as “high binding affinity”, the “binding of the influenza A virus to the surrogate host cells” value (influenza A virus) is given as “prevent the binding” and the “membrane convergence of virus and host cell” value (influenza A virus) is given as “inhibited”. The “deactivation of Toll-like receptors (TLR)” value [3] was “deactivators of Toll-like receptors” and the virus-induced proinflammatory cytokines (pulmonary inflammation) was “reduced”.
